Reference: patent US8906933B2, “Dihydropyrimidin-2(1H)-one compounds as neurokinin-3 receptor antagonists” (N30 Pharmaceuticals, Inc., priority 2010, dated 2014)

target: human NK3 receptor (Homo sapiens (Human), UniProt P29371); assay: Human NK3 receptor binding assay at 1 uM; conditions: 1 μM test compound; [3H]SR142801, CHO cell membranes; read-out: percent inhibition at 1 μM
Protocol: Antagonist activity was evaluated at a concentration of 1 μM for a representative subset of test compounds, and the results were expressed as the percent inhibition at that concentration.
Each test compound was evaluated at a single concentration of 1 μM. […] The results are expressed as a percent of control specific binding ((measured specific binding/control specific binding)×100) obtained in the presence of the test compounds.

Sequence of human NK3 receptor (P29371 whole entry): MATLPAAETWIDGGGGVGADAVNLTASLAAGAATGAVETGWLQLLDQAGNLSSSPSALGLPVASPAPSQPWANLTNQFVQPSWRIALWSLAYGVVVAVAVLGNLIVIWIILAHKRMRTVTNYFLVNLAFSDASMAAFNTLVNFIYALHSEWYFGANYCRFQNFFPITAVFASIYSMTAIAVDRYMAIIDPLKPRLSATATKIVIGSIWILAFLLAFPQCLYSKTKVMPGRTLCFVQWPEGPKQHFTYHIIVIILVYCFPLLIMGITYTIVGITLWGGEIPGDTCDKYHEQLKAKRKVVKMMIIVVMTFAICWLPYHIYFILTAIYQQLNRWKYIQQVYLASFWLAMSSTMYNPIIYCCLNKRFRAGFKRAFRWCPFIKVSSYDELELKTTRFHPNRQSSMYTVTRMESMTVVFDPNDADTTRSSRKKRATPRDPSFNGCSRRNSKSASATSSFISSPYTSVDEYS

| inhibition at 1 µM [%] | SMILES |
| --- | --- |
| > 50 | CCOc1cc(C2NC(=O)NC(c3ccccc3)=C2c2ccccc2Cl)cc([N+](=O)[O-])c1O (stereo not drawn) [5-(2-chlorophenyl)-4-(3-ethoxy-4-hydroxy-5-nitrophenyl)-6-phenyl-3,4-dihydropyrimidin-2(1H)-one] |
| > 50 | CCOc1cc(C2NC(=O)NC(c3ccc(F)c(Cl)c3)=C2c2ccccc2)cc([N+](=O)[O-])c1O (stereo not drawn) [6-(3-chloro-4-fluorophenyl)-4-(3-ethoxy-4-hydroxy-5-nitrophenyl)-5-phenyl-3,4-dihydropyrimidin-2(1H)-one] |
| > 50 | CCOc1cc(C2NC(=O)NC(c3ccccc3)=C2c2ccccc2)cc(Br)c1O (stereo not drawn) [4-(3-bromo-5-ethoxy-4-hydroxyphenyl)-5,6-diphenyl-3,4-dihydropyrimidin-2(1H)-one] |
| > 50 | CCOc1cc(C2NC(=O)NC(c3ccccc3F)=C2c2ccccc2)cc([N+](=O)[O-])c1O (stereo not drawn) [4-(3-ethoxy-4-hydroxy-5-nitrophenyl)-6-(2-fluorophenyl)-5-phenyl-3,4-dihydropyrimidin-2(1H)-one] |
| > 50 | O=C1NC(c2ccccc2)=C(c2ccccc2)C(c2ccc(O)c([N+](=O)[O-])c2)N1 (stereo not drawn) [4-(4-hydroxy-3-nitrophenyl)-5,6-diphenyl-3,4-dihydropyrimidin-2(1H)-one] |
| > 50 | CCOc1cc(C2NC(=O)NC(c3ccccc3)=C2c2cccc(CC)c2)cc([N+](=O)[O-])c1O (stereo not drawn) [4-(3-ethoxy-4-hydroxy-5-nitrophenyl)-5-(3-ethylphenyl)-6-phenyl-3,4-dihydropyrimidin-2(1H)-one] |
| > 50 | CCOc1cc(C2NC(=O)NC(c3ccccc3)=C2c2ccc(C)cc2)cc([N+](=O)[O-])c1O (stereo not drawn) [4-(3-ethoxy-4-hydroxy-5-nitrophenyl)-6-phenyl-5-p-tolyl-3,4-dihydropyrimidin-2(1H)-one] |
| > 50 | CCOc1cc(C2NC(=O)NC(c3ccc(C(F)(F)F)cc3)=C2c2ccccc2)cc([N+](=O)[O-])c1O (stereo not drawn) [4-(3-ethoxy-4-hydroxy-5-nitrophenyl)-5-phenyl-6-(4-(trifluoromethyl)phenyl)-3,4-dihydropyrimidin-2(1H)-one] |
| > 50 | CCOc1cc(C2NC(=O)NC(c3ccccc3)=C2c2ccccc2)cc(F)c1O (stereo not drawn) [4-(3-ethoxy-5-fluoro-4-hydroxyphenyl)-5,6-diphenyl-3,4-dihydropyrimidin-2(1H)-one] |
| > 50 | CCOc1cc(C2NC(=O)NC(c3cc(F)cc(F)c3)=C2c2ccccc2)cc([N+](=O)[O-])c1O (stereo not drawn) [6-(3,5-difluorophenyl)-4-(3-ethoxy-4-hydroxy-5-nitrophenyl)-5-phenyl-3,4-dihydropyrimidin-2(1H)-one] |
| > 50 | CCOc1cc(C2NC(=O)NC(c3ccccc3)=C2c2ccccc2)cc2[nH]c(=O)oc12 (stereo not drawn) [7-ethoxy-5-(2-oxo-5,6-diphenyl-1,2,3,4-tetrahydropyrimidin-4-yl)benzo[d]oxazol-2(3H)-one] |
| > 50 | CCOc1cc(C2NC(=O)NC(c3ccc(F)c(F)c3)=C2c2ccccc2)cc([N+](=O)[O-])c1O (stereo not drawn) [6-(3,4-difluorophenyl)-4-(3-ethoxy-4-hydroxy-5-nitrophenyl)-5-phenyl-3,4-dihydropyrimidin-2(1H)-one] |
| > 50 | CCOc1cc(C2NC(=O)NC(c3ccccc3)=C2c2ccccc2C)cc([N+](=O)[O-])c1O (stereo not drawn) [4-(3-ethoxy-4-hydroxy-5-nitrophenyl)-6-phenyl-5-o-tolyl-3,4-dihydropyrimidin-2(1H)-one] |
| > 50 | N#Cc1cccc(C2NC(=O)NC(c3ccccc3)=C2c2ccccc2)c1O (stereo not drawn) [2-hydroxy-3-(2-oxo-5,6-diphenyl-1,2,3,4-tetrahydropyrimidin-4-yl)benzonitrile] |
| > 50 | CCOc1cc(C2NC(=O)NC(C3CCCC3)=C2c2ccccc2)cc([N+](=O)[O-])c1O (stereo not drawn) [6-cyclopentyl-4-(3-ethoxy-4-hydroxy-5-nitrophenyl)-5-phenyl-3,4-dihydropyrimidin-2(1H)-one] |
